Laboratory results published in US20250026743A1, “HETEROARYL-LINKED ANALOGS AS MGLU5 NEGATIVE ALLOSTERIC MODULATORS AND METHODS OF MAKING AND USING THE SAME” (Vanderbilt University, priority 2021, published 2025).
Like-named read-outs stand apart in the source and are kept apart here.

Biological target: T1, hmGlu5 (Homo sapiens, UniProt P41594)
T1 construct: expressed in transfected cells; host or cells: HEK 293A
Assay: mGlu5 Ca2+ flux assay in HEK 293A cells (negative allosteric modulation of glutamate EC80 response)
Format: cell-based
Conditions: for remaining activity at 30 µM: HEK293-A, read-out: hmGlu5 NAM Emin (%)
Protocol: HEK 293A cells stably expressing either rat or human mGlu5 were plated in black-walled, clear-bottomed, poly-D-lysine coated 384-well plates in 20 μL of assay medium (DMEM containing 10% dialyzed FBS, 20 mM HEPES, 100 units/mL penicillin/streptomycin plus 250 ng/mL Fungizone, and 1 mM sodium pyruvate) at a density of 20K cells/well. The cells were grown overnight at 37° C. in the presence of 5% CO2. The next day, medium was removed and the cells incubated with 20 μL of 2.3 μM Fluo-4, AM prepared as a 2.3 mM stock in DMSO and mixed in a 1:1 ratio with 10% (w/v) pluronic acid F-127 and diluted in assay buffer (Hank's balanced salt solution, 20 mM HEPES, and 2.5 mM probenecid) for 45 minutes at 37° C. Dye was removed, 20 μL of assay buffer was added, and the plate was incubated for 5 minutes at room temperature.
Ca^2+ flux was measured using the Functional Drug Screening System (FDSS7000, Hamamatsu, Japan). After establishment of a fluorescence baseline for about 3 seconds, the compounds of the present invention were added to the cells, and the response in cells was measured. 2.3 minutes later an EC20 concentration of the mGlu5 receptor agonist glutamate was added to the cells, and the response of the cells was measured for 1.9 minutes; an EC80 concentration of agonist was added and readings taken for an additional 1.7 minutes. All test compounds were dissolved and diluted to a concentration of 10 mM in 100% DMSO. Compounds were then serially diluted 1:3 in DMSO into 10 point concentration response curves, transferred to daughter plates, and further diluted into assay buffer to a 2× stock. Calcium fluorescence measures were recorded as fold over basal fluorescence; raw data was then normalized to the maximal response to glutamate. Antagonism of the agonist response of the mGlu5 receptor in the present invention was observed as a decrease in response to nearly maximal concentrations of glutamate in the presence of compound compared to the response to glutamate in the absence of compound.
The raw data file containing all time points was used as the data source in the analysis template. This was saved by the FDSS as a tab-delimited text file. Data were normalized using a static ratio function (F/F0) for each measurement of the total 360 values per well divided by each well's initial value. Data were then reduced to peak amplitudes (Max−Initial Min) using a time range that starts approximately 3 seconds prior to the glutamate EC20/EC80 addition and continues for approximately 90-120 seconds. This is sufficient time to capture the peak amplitude of the cellular calcium response. Individual amplitudes were expressed as % EMax by multiplying each amplitude by 100 and then dividing the product by the mean of the amplitudes derived from the glutamate ECMax-treated wells. IC50 values for test compounds were generated by fitting the normalized values versus the log of the test compound concentration (in mol/L) using a 4 parameter logistic equation where none of the parameters were fixed. Each of the three values collected at each concentration of test compound were weighted evenly.
For NAMs with a CRC that plateaus above 10% Glu Max, the IC50 values are reported, the compound is designated a “partial NAM” and the % Glu Max is reported. […] Compounds without measurable activity are designated as “>30,000 nM” since the top concentration of compound tested in the assay is 30 μM. […]

[1] = HEK 293A cells, Ca2+ flux, glutamate EC80, >10,000 = decrease without plateau, read-out: hmGlu5 NAM IC50

T1 sequence (P41594 21-1212): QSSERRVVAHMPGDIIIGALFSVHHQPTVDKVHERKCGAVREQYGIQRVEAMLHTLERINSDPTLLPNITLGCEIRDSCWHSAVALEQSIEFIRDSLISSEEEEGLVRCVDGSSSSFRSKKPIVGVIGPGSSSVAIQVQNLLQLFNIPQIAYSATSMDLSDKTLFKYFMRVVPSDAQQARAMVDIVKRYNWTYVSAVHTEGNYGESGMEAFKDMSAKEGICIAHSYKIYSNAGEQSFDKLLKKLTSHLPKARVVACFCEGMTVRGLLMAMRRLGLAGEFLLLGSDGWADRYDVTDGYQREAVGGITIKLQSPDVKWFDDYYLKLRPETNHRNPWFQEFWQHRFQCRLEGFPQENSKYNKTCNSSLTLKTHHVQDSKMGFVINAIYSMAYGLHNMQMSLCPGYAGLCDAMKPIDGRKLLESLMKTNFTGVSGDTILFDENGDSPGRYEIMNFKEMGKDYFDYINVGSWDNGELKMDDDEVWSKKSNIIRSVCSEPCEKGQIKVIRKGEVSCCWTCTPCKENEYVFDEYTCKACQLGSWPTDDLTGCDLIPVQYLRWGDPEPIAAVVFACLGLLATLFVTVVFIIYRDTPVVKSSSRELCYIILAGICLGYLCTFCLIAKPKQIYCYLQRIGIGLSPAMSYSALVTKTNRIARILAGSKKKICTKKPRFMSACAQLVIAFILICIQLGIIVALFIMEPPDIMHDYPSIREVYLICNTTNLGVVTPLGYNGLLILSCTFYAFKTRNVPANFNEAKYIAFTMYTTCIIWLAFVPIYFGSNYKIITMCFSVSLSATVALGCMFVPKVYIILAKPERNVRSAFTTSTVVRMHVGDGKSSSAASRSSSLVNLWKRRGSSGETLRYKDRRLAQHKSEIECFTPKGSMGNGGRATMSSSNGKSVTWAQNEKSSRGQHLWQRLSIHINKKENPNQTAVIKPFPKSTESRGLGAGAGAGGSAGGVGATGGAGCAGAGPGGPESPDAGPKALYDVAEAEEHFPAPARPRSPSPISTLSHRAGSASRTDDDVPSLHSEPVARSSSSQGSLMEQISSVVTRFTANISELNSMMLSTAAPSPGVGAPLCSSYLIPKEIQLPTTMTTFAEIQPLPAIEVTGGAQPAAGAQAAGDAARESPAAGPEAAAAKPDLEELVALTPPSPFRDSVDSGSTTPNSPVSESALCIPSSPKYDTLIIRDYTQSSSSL

SMILES | remaining activity at 30 µM (% Glu max at 30 μM) [%] | IC50 [1] [nM] | IC50 [nM] | remaining activity at 30 µM [%]
Cc1nc(-c2nnc(-c3ccc(F)cn3)o2)cc(-c2cncc(F)c2)c1OC(C)C [Compound 45, 2-(5-fluoro-5′-isopropoxy-6′-methyl-[3,4′-bipyridin]-2′-yl)-5-(5-fluoropyridin-2-yl)-1,3,4-oxadiazole] | 2 | 946 | – | –
Cc1ccncc1-c1cc(-c2noc(Cc3ccnn3C)n2)nc(C)c1F [Compound 56, 3-(5′-fluoro-4,6′-dimethyl-[3,4′-bipyridin]-2′-yl)-5-((1-methyl-1H-pyrazol-5-yl)methyl)-1,2,4-oxadiazole] | 50 | > 10000 | – | –
Cc1nc(-c2n[nH]c(-c3ccc(F)cc3)n2)cc(-c2cncc(F)c2)c1F [Compound 99, 3′,5-difluoro-6′-(5-(4-fluorophenyl)-1H-1,2,4-triazol-3-yl)-2′-methyl-3,4′-bipyridine] | 2 | 47 | – | –
Cc1nc(-c2nnc(-c3ccncc3)o2)cc(-c2cncc(F)c2)c1F [Compound 81, 2-(5,5′-difluoro-6′-methyl-[3,4′-bipyridin]-2′-yl)-5-(pyridin-4-yl)-1,3,4-oxadiazole] | – | – | > 10000 | 55
Cc1csc(-c2nnc(-c3cc(-c4cncc(F)c4)c(F)c(C)n3)o2)n1 [Compound 83, 2-(5,5′-difluoro-6′-methyl-[3,4′-bipyridin]-2′-yl)-5-(4-methylthiazol-2-yl)-1,3,4-oxadiazole] | – | 600 | – | 2
Cc1cncc(-c2nc(-c3cc(-c4cnccc4C)c(F)c(C)n3)no2)c1 [Compound 87, 3-(5′-fluoro-4,6′-dimethyl-[3,4′-bipyridin]-2′-yl)-5-(5-methylpyridin-3-yl)-1,2,4-oxadiazole] | 13 | 4290 | – | –
Cc1ccncc1-c1cc(-c2noc(-c3cc(Cl)ccn3)n2)nc(C)c1F [Compound 91, 5-(4-chloropyridin-2-yl)-3-(5′-fluoro-4,6′-dimethyl-[3,4′-bipyridin]-2′-yl)-1,2,4-oxadiazole] | 2 | 155 | – | –
Cc1ccncc1-c1cc(-c2noc(-c3cccc(Cl)n3)n2)nc(C)c1F [Compound 21, 5-(6-chloropyridin-2-yl)-3-(5′-fluoro-4,6′-dimethyl-[3,4′-bipyridin]-2′-yl)-1,2,4-oxadiazole] | 4 | 493 | – | –
Cc1ccncc1-c1cc(-c2noc(-c3cc(F)ccn3)n2)ncc1F [Compound 3, 3-(5′-fluoro-4-methyl-[3,4′-bipyridin]-2′-yl)-5-(4-fluoropyridin-2-yl)-1,2,4-oxadiazole] | 2 | 744 | – | –
Cc1ccncc1-c1cc(-c2nnc(-c3ccc(F)cn3)o2)nc(C)c1F [Compound 42, 2-(5′-fluoro-4,6′-dimethyl-[3,4′-bipyridin]-2′-yl)-5-(5-fluoropyridin-2-yl)-1,3,4-oxadiazole] | 2 | 375 | – | –
Cc1nc(-c2nnc(-c3ccc(F)cn3)o2)cc(-c2cnccc2Cl)c1F [Compound 77, 2-(4-chloro-5′-fluoro-6′-methyl-[3,4′-bipyridin]-2′-yl)-5-(5-fluoropyridin-2-yl)-1,3,4-oxadiazole] | 3 | 138 | – | –
Cc1nc(-c2noc(C3CCCCC3)n2)cc(-c2cncc(F)c2)c1F [Compound 36, 5-cyclohexyl-3-(5,5′-difluoro-6′-methyl-[3,4′-bipyridin]-2′-yl)-1,2,4-oxadiazole] | 51 | > 10000 | – | –
Cc1ccc(-c2cc(-c3nnc(-c4ccc(F)cn4)o3)nc(C)c2F)c(C)n1 [Compound 111, 2-(5′-fluoro-2,6,6′-trimethyl-[3,4′-bipyridin]-2′-yl)-5-(5-fluoropyridin-2-yl)-1,3,4-oxadiazole] | 2 | 1530 | – | –
Cc1ccncc1-c1cc(-c2n[nH]c(-c3ccc(F)cn3)n2)nc(C)c1F [Compound 97, 3′-fluoro-6′-(5-(5-fluoropyridin-2-yl)-1H-1,2,4-triazol-3-yl)-2′,4-dimethyl-3,4′-bipyridine] | 2 | 183 | – | –
Cc1cccc(-c2nnc(-c3cc(-c4cncc(F)c4)c(F)c(C)n3)o2)n1 [Compound 58, 2-(5,5′-difluoro-6′-methyl-[3,4′-bipyridin]-2′-yl)-5-(6-methylpyridin-2-yl)-1,3,4-oxadiazole] | – | > 10000 | – | 31
Cc1cccc(-c2nc(-c3cc(-c4cnccc4C)c(F)c(C)n3)no2)n1 [Compound 22, 3-(5′-fluoro-4,6′-dimethyl-[3,4′-bipyridin]-2′-yl)-5-(6-methylpyridin-2-yl)-1,2,4-oxadiazole] | 3 | 1090 | – | –

More lines, main results first:

remaining activity at 30 µM (% Glu max at 30 μM) [%] | IC50 [1] [nM] | SMILES | IC50 [nM] | remaining activity at 30 µM [%]
2 | 64 | Cc1nc(-c2n[nH]c(-c3ccc(F)cn3)n2)cc(-c2cncc(F)c2)c1F [Compound 96, 3′,5-difluoro-6′-(5-(5-fluoropyridin-2-yl)-1H-1,2,4-triazol-3-yl)-2′-methyl-3,4′-bipyridine] | – | –
2 | 190 | Cc1cc(-c2cncc(F)c2)cc(-c2noc(-c3ccc(F)cn3)n2)n1 [Compound 55, 3-(5-fluoro-6′-methyl-[3,4′-bipyridin]-2′-yl)-5-(5-fluoropyridin-2-yl)-1,2,4-oxadiazole] | – | –
3 | 161 | Cc1nc(-c2noc(-c3ccc(F)cn3)n2)cc(-c2cc(F)cc(F)c2)c1F [Compound 67, 3-(4-(3,5-difluorophenyl)-5-fluoro-6-methylpyridin-2-yl)-5-(5-fluoropyridin-2-yl)-1,2,4-oxadiazole] | – | –
5 | 1290 | Cc1nc(-c2noc(-c3ccc(F)cn3)n2)cc(-c2cncc(C(C)(C)O)c2)c1F [Compound 62, 2-(3′-fluoro-6′-(5-(5-fluoropyridin-2-yl)-1,2,4-oxadiazol-3-yl)-2′-methyl-[3,4′-bipyridin]-5-yl)propan-2-ol] | – | –
6 | 125 | Fc1ccc(-c2nc(-c3cc(-c4cncc(F)c4)cc(C(F)F)n3)no2)nc1 [Compound 61, 3-(6′-(difluoromethyl)-5-fluoro-[3,4′-bipyridin]-2′-yl)-5-(5-fluoropyridin-2-yl)-1,2,4-oxadiazole] | – | –
21 | > 10000 | Cc1cc(O[C@@H]2CCOC2)cc(-c2noc(-c3ccc(F)cn3)n2)n1 [Compound 112, (R)-5-(5-fluoropyridin-2-yl)-3-(6-methyl-4-((tetrahydrofuran-3-yl)oxy)pyridin-2-yl)-1,2,4-oxadiazole] | – | –
14 | 2410 | Cc1nc(-c2noc(-c3cccc(F)c3)n2)cc(-c2cncc(F)c2)c1F [Compound 38, 3-(5,5′-difluoro-6′-methyl-[3,4′-bipyridin]-2′-yl)-5-(3-fluorophenyl)-1,2,4-oxadiazole] | – | –
1 | 450 | [2H]C([2H])([2H])c1cc(-c2cncc(F)c2)cc(-c2nnc(-c3ccc(F)cn3)o2)n1 [Compound 85, 2-(5-fluoro-6′-(methyl-d3)-[3,4′-bipyridin]-2′-yl)-5-(5-fluoropyridin-2-yl)-1,3,4-oxadiazole] | – | –
9 | 1020 | Cc1nc(-c2noc(-c3ccc(F)cn3)n2)cc(-c2cncc(C(F)(F)F)c2)c1F [Compound 33, 3-(5′-fluoro-6′-methyl-5-(trifluoromethyl)-[3,4′-bipyridin]-2′-yl)-5-(5-fluoropyridin-2-yl)-1,2,4-oxadiazole] | – | –
